Assay results from patent publication US20070041904A1, “Peptides whose uptake by cells is controllable” (priority 2003, published 2007).

Assays:
[1] = tested on: human squamous cell carcinoma specimens; test: Staining of freshly resected squamous cell carcinoma slices
Protocol: Squamous Cell Carcinoma Specimens. Human squamous cell carcinoma specimens from planned resections of neoplasms were collected postoperatively according to a protocol with institutional review board approval. The specimens were in ice-cold normal saline for 30 min during transport back to the laboratory, where they were cut by hand to ≈1-mm-thick slices, added to 1 ml of 1 μM peptide for 15 min at room temperature, rinsed five times for 2 min in 1 ml of HBSS, cryosectioned, and imaged as described above.
ACPPs Light Up Human Squamous Cell Carcinomas. Although human tumor cell lines xenografted into immunodeficient mice are popular cancer models, they fail to mimic many aspects of real human tumors. […] Contrast, defined as (tumor tissue fluorescence−autofluorescence)/(normal tissue fluorescence−autofluorescence), was almost eight in this example. […]
Images from tumor tissue treated with cleavable peptide are much clearer than are images from similar tumor tissue treated with “scrambled” uncleavable peptides and are much clearer than images from normal tongue tissue treated with cleavable peptide. […] Sections were taken for fluorescence microscopy using a low-power objective, and tissue type was verified by staining tissue. […]

Jurkat cells [2] = test: 99mTc-labeled ACPP uptake into Jurkat cells, gamma counting; format: cell-based, human; conditions: for increase in cell-associated radioactivity after cleavage: MMP-9 cleaved vs intact
Protocol: ACPPs may be used to deliver radioactive cargo to target cells and tissues. […] Spiked with 0.25 mCi Tc label, 25 nM intact or cleaved substrate. The target Jurkat cells were incubated with the peptides for 30 min at 37° C., and then washed 3 times with HBSS (HEPES-buffered saline solution) at room temperature (RT). 20 hours later, cells were counted by Gamma counter.
Spiked (4%) with 60 μCi ^99mTc-labeled peptide, the target Jurkat cells were loaded with 2 μM intact or MMP-9-cleaved peptide at 37° C. for 30 min. Then, the cells were washed with RT HBSS 3 times, and counted (Gamma counter) 20 hours later.
The use of ACPP labeled with technetium-99m (^99mTc) as described in Example 19 can be extended for use as an imaging agent for mouse models of cancer. One obvious advantage of gamma scintigraphy as compared to fluorescent imaging is that gamma imaging reaches much deeper into tissue. As described above, various carrier-conjugated ACPPs that incorporate N-epsilon-bis(2-pyridylmethyl)lysine (DPK), a high-affinity chelator for technetium tricarbonyl, Tc(CO)3, have been prepared. […] The simplest of these compounds, (11 KDa-mPEG)-e9-XPLGLAG-r9-[DPK-^99mTc(CO)3] was first tested on isolated cultured cells. (Note: X denotes a 6-aminohexanoyl spacer, and lower case letters denote D-amino acids.) Before cleavage, the uptake of this CPP into Jurkat lymphocytes was only 1.9% of the positive control CPP, r9-[DPK-^99mTc(CO)3].

Jurkat cells [3] = test: Gd-labeled ACPP uptake into Jurkat cells, ICP-MS; format: cell-based, human
Protocol: Gadolinium chloride (GdCl3) is used to add gadolinium (Gd) to provide a contrast-enhancing, PEGylated ACPP mPEG-S—CH2CONH-e9-ahx-PLGLAG-r9-K[DOTA(Gd)]-CONH2 (SEQ ID NO: 75). It will be understood that in other embodiments the ACPP need not include a PEG moiety, and may include other moieties as well. […] Jurkat cells were incubated with 8 μM of the intact or of the cleaved substrate at 37° C. for 30 min; then the cells were washed four times with RT HBSS. Gd concentration was determined by ICP-MS (inductively coupled plasma mass spectroscopy). Cleavage led to a 19-fold increase in uptake by target cells.
Three ACPPs carrying Gd^3+ were synthesized: (11-KDa-mPEG)-e9-XPLGLAG-r9-K(DOTA-Gd), Suc9-(70 KDa dextran)-e9-XPLGLAG-r9-K(DOTA-Gd), and Suc9-(70 KDa dextran)-e9-XPLGLAX-r9-K(DOTA-Gd). The first of these ACCPs was tested at 8 μM on isolated Jurkat lymphocytes. Gd^3+ uptake was measured by inductively coupled plasma mass spectroscopy. […] Thus, MMP-mediated cleavage of the test peptide increased uptake by a factor of 19-fold […].

[4] = tested on: neprilysin / meprin / MMP-9; test: In-vitro phage selection, Nep/Mep/MMP-9
Protocol: (§1) In-vitro selection strategies involved screening for phage that are specifically cleaved by purified enzymes or tissue extracts associated with tumor tissue while also selecting against cleavage by enzymes and extracts associated with normal tissue. […] The inventors have employed two different in-vitro selection paradigms. In the initial selection, the 2.5×10^6 diversity M13 library was treated with the kidney proteases meprin and neprilysin for 3 hours. Ni-NTA agarose (Qiagen) was then added and allowed to bind to the phage for 5-15 minutes, then the Ni-NTA agarose carrying the phage was resuspended with MMP-9 and incubated at 37 for 2-3 hours. After removing the beads by centrifugation, phage released into the supernatant were plated with fresh bacteria. This procedure selects for phage that remain uncleaved by kidney proteases but are then released by MMP-9. This procedure was repeated for as many as six rounds with representative phage being isolated and sequenced to monitor the selection process. The same selection procedure was also performed with liver/kidney extract instead of meprin/neprilysin and tumor extract instead of MMP-9. The resulting sequences are tabulated below. The most promising peptides were chemically resynthesized with flanking e9 and r9 sequences and a C-terminal fluorescein tag. They were then assayed by tricine gel electrophoresis for cleavage by tumor, liver, kidney extracts and MMP-9.

[5] = Phage display selection, all screens
Protocol: (§2) In-vivo selections were performed by injection of phage libraries into mice either containing tumor xenografts (HT1080 cells) or mammary tumors in transgenic mice (MMTV-PyMT). Tumor tissues were removed 3-24 hrs after injection. The rescued phage were re-amplified in bacteria and reinjected into another mouse for up to 7 iterative cycles of selection. Representative phage were isolated at each round and sequenced to monitor the selection process.
as §1

furin = test: Furin inhibition assay; format: biochemical
Protocol: The furin assay was performed with Boc-Arg-Val-Arg-Arg-MCA substrate (Bachem) at a final concentration of 200 μM in 100 μl of 100 mM MES/NaOH, pH 7.0, containing 1 mM CaCl2. Inhibitory peptides were pre-incubated with 1 unit furin enzyme (NEB) for 30 min prior to addition of substrate. Assays were performed in triplicate by incubation at 37° C. for 4 hours in a 96-well clear-bottom black-wall Costar plate. Release of MCA was measured by excitation at 380 nm and emission at 460 nm. IC50's were determined as the concentration of inhibitor required to inhibit 50% of the emission increase at 460 nm over the no-enzyme control. […]

[6] = In-vitro phage selection, liver/kidney/tumor extracts
Protocol: as §1

MMP-2 = test: Cleavage kinetics for MMP-2 cleavage; format: biochemical
Description: Cleavage kinetics for MMP-2 cleavage of H2N-e6-XPLGLAG-r9-Xc(Cy5)-CONH2 (where X≡aminohexanoic acid) are illustrated in FIG. 27.
Cleavage of a MMP-2 substrate ACPP is illustrated in FIG. 27.

[7] = tested on: HT1080 tumor xenografts or mammary tumors (MMTV-PyMT); test: In-vivo phage selection; design: species or system mice; conditions: mouse
Protocol: as §2

HT-1080 tumors = test: In vivo fluorescence imaging of HT-1080 tumor xenografts; design: species or system nude mice; conditions: mean±SE
Protocol: Xenografts in Mice. Nude mice (age, 4-6 weeks) were injected s.c. with ≈10^6 HT-1080 cells. […] Animals were then imaged at various times by using a Nikon f/1.2 camera lens in front of a cooled charge-coupled device camera (SenSys, Photometrics, Tucson, Ariz.). For longer lasting imaging studies, animals were allowed to wake up after 2 h of anesthesia and were reanesthetized at ≈4 and 6 hr for further data collection. […] After imaging was ended, animals were killed with halothane, and organs of interest were harvested and weighed. […] Cy5 fluorescence was imaged as described above.
We next tested whether ACPPs could light up protease expressing human tumor xenografts in whole mice. We chose HT-1080 tumors in the axilla of nude mice because these tumors express both MMP-2 and MMP-9 and have been used to test other MMP-2 cleavable contrast agents (22, 26). […] Anesthetized mice were injected through the tail vein with either an MMP-2 cleavable ACPP, an isomeric scrambled version verified not to be a substrate for MMP-2 or MMP-9, or an all-D-amino acid version. […] To quantitate the results, we measured the contrast index defined as (fluorescence intensity of tumor−autofluorescence)/(fluorescence of normal contralateral region−autofluorescence).

furin, sequence (P09958 108-576 limits assumed): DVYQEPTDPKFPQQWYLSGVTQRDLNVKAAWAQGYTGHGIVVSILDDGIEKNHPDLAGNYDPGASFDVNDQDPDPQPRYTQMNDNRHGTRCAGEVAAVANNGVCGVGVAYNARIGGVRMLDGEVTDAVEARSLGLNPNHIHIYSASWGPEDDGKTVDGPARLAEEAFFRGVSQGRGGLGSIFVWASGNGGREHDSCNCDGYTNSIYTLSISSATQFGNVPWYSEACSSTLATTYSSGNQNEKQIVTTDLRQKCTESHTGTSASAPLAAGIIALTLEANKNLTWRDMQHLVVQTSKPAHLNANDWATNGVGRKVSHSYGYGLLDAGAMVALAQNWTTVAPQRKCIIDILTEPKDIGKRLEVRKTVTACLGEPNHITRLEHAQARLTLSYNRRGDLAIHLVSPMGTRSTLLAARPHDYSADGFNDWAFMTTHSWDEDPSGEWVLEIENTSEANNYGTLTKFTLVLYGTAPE

Substance: (5 kDa PEG)-eeeeeeeeeXPLGLAG-rrrrrrrrrXk(Cy5) [cleavable peptide]
- contrast, relatively differentiated oral cavity_oropharynx tumors ([1]; mean±SD, two patients): 2.7±0.2
- contrast, high-grade laryngeal tumors ([1]; two tumors): 6.5±3.4

Substance: (11 KDa-mPEG)-e9-XPLGLAG-r9-[DPK-^99mTc(CO)3]
- increase in cell-associated radioactivity after cleavage (Jurkat cells [2]): 57 -fold
- uptake after cleavage, % of positive control (Jurkat cells [2]; after MMP-9): 107%
- uptake before cleavage, % of positive control CPP (Jurkat cells [2]; positive control r9-[DPK-99mTc(CO)3]): 1.9%

Substance: (11-KDa-mPEG)-e9-XPLGLAG-r9-K(DOTA-Gd)
- increase in Gd uptake after cleavage (Jurkat cells [3]; 8 μM): 19 -fold
- Gd3+ uptake, MMP-9-cleaved peptide (Jurkat cells [3]; 8 μM, ICP-MS): 737 µM
- Gd3+ uptake, intact peptide (Jurkat cells [3]; 8 μM, ICP-MS): 39 µM

Substance: ARKRSQ
- # times identified in Nep/Mep/MMP-9 screen [4]: 2
- Total # times isolated [5]: 2

Substance: Ac-r9-k-NH2 [reference compound]
- IC50 (furin; intact / uncleaved peptide): 3.4 µM

Substance: DSNAES
- # times identified in Nep/Mep/MMP-9 screen [4]: 3
- # times identified in liver/kidney/tumor screen [6]: 1
- Total # times isolated [5]: 4

Substance: DVGTTE
- # times identified in Nep/Mep/MMP-9 screen [4]: 5
- Total # times isolated [5]: 5

Substance: FMEIET
- # times identified in Nep/Mep/MMP-9 screen [4]: 3
- Total # times isolated [5]: 3

Substance: GGHTRQ
- # times identified in Nep/Mep/MMP-9 screen [4]: 2
- Total # times isolated [5]: 2

Substance: GLWQGP
- # times identified in liver/kidney/tumor screen [6]: 7
- Total # times isolated [5]: 7

Substance: GMMYRS
- # times identified in Nep/Mep/MMP-9 screen [4]: 1
- # times identified in liver/kidney/tumor screen [6]: 3
- Total # times isolated [5]: 4

Substance: H2N-e6-XPLGLAG-r9-Xc(Cy5)-CONH2
- Km (MMP-2): 534 µM
- kcat (MMP-2): 15.0 s⁻¹
- kcat/Km (MMP-2): 28,037 M^−1s^−1

Substance: HEVVAG
- # times identified in Nep/Mep/MMP-9 screen [4]: 2
- Total # times isolated [5]: 2

Substance: IDKQLE
- # times identified in Nep/Mep/MMP-9 screen [4]: 3
- Total # times isolated [5]: 3

Substance: INGKVT
- # times identified in Nep/Mep/MMP-9 screen [4]: 2
- Total # times isolated [5]: 2

Substance: ITDMAA
- # times identified in liver/kidney/tumor screen [6]: 3
- Total # times isolated [5]: 4
- # times identified in in-vivo screen [7]: 1

Substance: LPGMMG
- # times identified in liver/kidney/tumor screen [6]: 5
- Total # times isolated [5]: 5

Substance: QCTGRF
- # times identified in Nep/Mep/MMP-9 screen [4]: 1
- # times identified in liver/kidney/tumor screen [6]: 4
- Total # times isolated [5]: 6
- # times identified in in-vivo screen [7]: 1

Substance: RLQLKL
- # times identified in liver/kidney/tumor screen [6]: 11
- Total # times isolated [5]: 12
- # times identified in in-vivo screen [7]: 1

Substance: RWRTNF
- # times identified in Nep/Mep/MMP-9 screen [4]: 4
- Total # times isolated [5]: 4

Substance: TDLGAM
- # times identified in liver/kidney/tumor screen [6]: 5
- Total # times isolated [5]: 5

Substance: TSAVRT
- Total # times isolated [5]: 2
- # times identified in in-vivo screen [7]: 2

Substance: WRNTIA
- # times identified in Nep/Mep/MMP-9 screen [4]: 3
- Total # times isolated [5]: 3

Substance: WRPCES
- # times identified in Nep/Mep/MMP-9 screen [4]: 2
- Total # times isolated [5]: 3
- # times identified in in-vivo screen [7]: 1

Substance: [11 kDa PEG]-X-e9-XPLG*LAG-r9 [cleavable ACPP]
- contrast index (tumor−autofluorescence)/(normal contralateral−autofluorescence) (HT-1080 tumors): 2.1±0.17

Substance: [11 kDaPEG]-X-e9-XLALGPG-r9 [scrambled isomer]
- contrast index (tumor−autofluorescence)/(normal contralateral−autofluorescence) (HT-1080 tumors): 1.3±0.16

Substance: [11-kDa PEG]-X-e9-Xplglag-r9-Xk(Cy5) [all-D-amino acid control]
- contrast index (tumor−autofluorescence)/(normal contralateral−autofluorescence) (HT-1080 tumors): 1.5±0.11

Substance: decanoyl-RVKR-chloromethylketone [reference compound]
- IC50 (furin; control inhibitor): 0.027 µM

Substance: e9-XPLGLAG-r9-Xk-NH2
- IC50 (furin; intact / uncleaved peptide): 27 µM

Substance: mPEG(11 kd)-S—CH2—CONH-ahx-e9-ahx-PLGLAG-r9-ahx-k-CONH2
- increase in cell-associated radioactivity after cleavage (Jurkat cells [2]): 38 -fold

Substance: mPEG(11kd)-e9-XPLGLAG-r9-Xk-NH2
- IC50 (furin; intact / uncleaved peptide): > 50 µM

Substance: mPEG-S—CH2CONH-e9-ahx-PLGLAG-r9-K[DOTA(Gd)]-CONH2
- increase in Gd uptake after cleavage (Jurkat cells [3]; 8 μM): 19 -fold

Substance: r9-K(DOTA-Gd) [reference compound]
- Gd3+ uptake, positive control CPP (Jurkat cells [3]; ICP-MS): 504 µM
